This experiment deals with BDF1 mice, P388 leukemia ip, median survival T/C. As to the kind of experiment: NCI In Vivo Anticancer Drug Screen. Data for tumor model P388 Leukemia (intraperitoneal) in B6D2F1 (BDF1) mice. As to conditions: endpoint: median survival time, higher = longer survival. The gist of the method:
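Vehicle-dosed animals serve as the reference; survival of compound-dosed, tumour-implanted mice is divided by it.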

[1] abbreviates: dose: 50.0 mg/kg/injection, schedule: Q04DX003 (ip), vehicle: water.
[2] abbreviates: dose: 100.0 mg/kg/injection, schedule: Q04DX003 (ip), vehicle: water.
[3] abbreviates: dose: 200.0 mg/kg/injection, schedule: Q04DX003 (ip), vehicle: water.
Setting [4] is: dose: 50.0 mg/kg/injection, schedule: Q01DX009 (ip), vehicle: saline.
The mark [5] stands for this setting: dose: 100.0 mg/kg/injection, schedule: Q01DX009 (ip), vehicle: saline.
The mark [6] stands for this setting: dose: 200.0 mg/kg/injection, schedule: Q01DX009 (ip), vehicle: saline.
[7] abbreviates: dose: 100.0 mg/kg/injection, schedule: Q04DX003 (ip), vehicle: saline with Tween-80.
[8] abbreviates: dose: 200.0 mg/kg/injection, schedule: Q04DX003 (ip), vehicle: saline with Tween-80.
Setting [9] is: dose: 50.0 mg/kg/injection, schedule: Q04DX003 (ip), vehicle: saline.
The mark [10] stands for this setting: dose: 100.0 mg/kg/injection, schedule: Q04DX003 (ip), vehicle: saline.
[11] abbreviates: dose: 200.0 mg/kg/injection, schedule: Q04DX003 (ip), vehicle: saline.
The mark [12] stands for this setting: dose: 25.0 mg/kg/injection, schedule: Q01DX009 (ip), vehicle: saline with Tween-80.
Setting [13] is: dose: 100.0 mg/kg/injection, schedule: Q01DX009 (ip), vehicle: saline with Tween-80.
The mark [14] stands for this setting: dose: 50.0 mg/kg/injection, schedule: Q01DX009 (ip), vehicle: saline with Tween-80.
The mark [15] stands for this setting: dose: 200.0 mg/kg/injection, schedule: Q01DX009 (ip), vehicle: saline with Tween-80.
Where [16] appears, read: dose: 25.0 mg/kg/injection, schedule: Q01DX009 (ip), vehicle: saline.
Setting [17] is: dose: 400.0 mg/kg/injection, schedule: Q01DX009 (ip), vehicle: saline.

Molecules are shown by their SMILES. Where “and” joins values, the source holds several entries; their conditions need not be identical. Equal entries are not always repeated. Toxic doses and inconclusive results are not listed.

`COc1ccc(CNCC(OC)OC)cc1O`: the T/C was 99 % of control (dose: 100.0 mg/kg/injection, schedule: Q01DX001 (ip), vehicle: saline with Tween-80) and 102 % of control (dose: 200.0 mg/kg/injection, schedule: Q01DX001 (ip), vehicle: saline with Tween-80).

For the molecule `Cc1c[nH]c2nccnc12`, the T/C was 103 % of control (dose: 1.56 mg/kg/injection, schedule: Q01DX009 (ip), vehicle: water); 94 % of control and 105 % of control (dose: 3.12 mg/kg/injection, schedule: Q01DX009 (ip), vehicle: water); 93 % of control and 94 % of control and 101 % of control (dose: 6.25 mg/kg/injection, schedule: Q01DX009 (ip), vehicle: water); 91 % of control and 106 % of control (dose: 12.5 mg/kg/injection, schedule: Q01DX009 (ip), vehicle: water); 90 % of control and 99 % of control (dose: 50.0 mg/kg/injection, schedule: Q01DX009 (ip), vehicle: water); 94 % of control under setting [1]. Moreover, the T/C was 89 % of control and 106 % of control (dose: 100.0 mg/kg/injection, schedule: Q01DX009 (ip), vehicle: water); 94 % of control under setting [2]; 108 % of control (dose: 200.0 mg/kg/injection, schedule: Q01DX009 (ip), vehicle: water); 103 % of control under setting [3]; 99 % of control (dose: 400.0 mg/kg/injection, schedule: Q01DX009 (ip), vehicle: water); 92 % of control (dose: 400.0 mg/kg/injection, schedule: Q04DX003 (ip), vehicle: water).

As for `CC(C)CCCC(C)CCO` (configuration not stated), the T/C under setting [4] was 100 % of control, the T/C under setting [5] was 100 % of control and the T/C under setting [6] was 101 % of control.

Regarding `CCCCOB=O`, the T/C is 109 % of control under setting [7] and 100 % of control under setting [8].

Regarding `COc1cc(-c2ccc(N=Nc3c(O)ccc4ccccc34)c(OC)c2)ccc1N=Nc1ccc2c(S(=O)(=O)O)cc(S(=O)(=O)O)c(N)c2c1O`, the T/C was 111 % of control under setting [4]; 104 % of control under setting [9]; 100 % of control under setting [10]; 105 % of control under setting [6]; 100 % of control under setting [11].

For the molecule `CCN(CCO)CCNc1ccc(C)c2sc3ccccc3c(=O)c12`, the T/C was 122 % of control under setting [12]; 103 % of control (dose: 66.0 mg/kg/injection, schedule: Q04DX003 (ip), vehicle: saline with Tween-80); 104 % of control under setting [13]; 117 % of control under setting [7].

Consider `CCc1nn2c(=O)nc(Oc3ccccc3)nc2s1`, for which the T/C runs as follows: under setting [14], 101 % of control; under setting [13], 106 % of control; under setting [15], 98 % of control.

For `CC(=O)OCC1OC(N)C(OC(C)=O)C(OC(C)=O)C1OC(C)=O` (configuration not stated), the T/C was 97 % of control under setting [14], 92 % of control under setting [13] and 96 % of control under setting [15].

In the case of `COC(=O)C1(C)CCC(c2ccc(OC)cc2)CC1=O` (configuration not stated), the T/C reads like this: under setting [4], 86 % of control; under setting [5], 100 % of control; under setting [10], 100 % of control; under setting [6], 109 % of control; under setting [11], 103 % of control.

Take `Cc1cc(-c2ccccc2)nnc1NCCN1CCOCC1`: the T/C reads like this: (dose: 6.25 mg/kg/injection, schedule: Q01DX009 (ip), vehicle: saline) 106 % of control; (dose: 12.5 mg/kg/injection, schedule: Q01DX009 (ip), vehicle: saline) 90 % of control; under setting [16], 88 % of control.

`Cc1cc(NC(=O)Nc2ccc(C3=NCCCN3)cc2)ccc1NC(=O)Nc1ccc(C2=NCCCN2)cc1`: the T/C reads like this: (dose: 29.0 mg/kg/injection, schedule: Q01DX009 (ip), vehicle: saline) 166 % of control; (dose: 45.0 mg/kg/injection, schedule: Q01DX009 (ip), vehicle: saline) 153 % of control; (dose: 65.0 mg/kg/injection, schedule: Q01DX009 (ip), vehicle: saline) 157 % of control; under setting [5], 216 % of control; (dose: 130.0 mg/kg/injection, schedule: Q01DX009 (ip), vehicle: saline) 243 % of control; under setting [6], 227 % of control and 219 % of control. For the same molecule, the T/C (dose: 300.0 mg/kg/injection, schedule: Q01DX009 (ip), vehicle: saline) is 169 % of control and the T/C under setting [17] is 98 % of control.

On to `Nc1cc(=O)n(-c2ccccc2)[nH]1`, for which the T/C by setting is: under setting [14], 105 % of control; under setting [13], 102 % of control; under setting [15], 109 % of control.

Turning to `O=C(Nc1ncn[nH]1)C(=O)Nc1ncn[nH]1`, the T/C under setting [13] is 102 % of control and the T/C under setting [15] was 100 % of control.

In the case of `COc1cc2ccncc2cc1OCc1ccccc1`, the T/C runs as follows: (dose: 6.25 mg/kg/injection, schedule: Q04DX003 (ip), vehicle: saline) 100 % of control; (dose: 12.5 mg/kg/injection, schedule: Q04DX003 (ip), vehicle: saline) 100 % of control and 118 % of control; under setting [16], 86 % of control; (dose: 25.0 mg/kg/injection, schedule: Q04DX003 (ip), vehicle: saline) 93 % of control and 103 % of control; under setting [4], 92 % of control; under setting [9], 98 % of control and 118 % of control. For the same molecule, the T/C by setting is: under setting [5], 104 % of control; under setting [10], 97 % of control and 100 % of control; under setting [11], 93 % of control and 120 % of control; (dose: 400.0 mg/kg/injection, schedule: Q04DX003 (ip), vehicle: saline) 106 % of control.

Take `COc1ccc2c(c1)CCC(C)(C#N)C2=O` (configuration not stated): the T/C was 100 % of control under setting [12], 100 % of control under setting [14] and 104 % of control under setting [13].

Take `CCCCCCCCCCCCCCCCC(C(=O)O)C(O)(CC(=O)O)C(=O)O` (configuration not stated): the T/C (dose: 25.0 mg/kg/injection, schedule: Q01DX010 (ip), vehicle: saline) was 104 % of control and the T/C (dose: 50.0 mg/kg/injection, schedule: Q01DX010 (ip), vehicle: saline) was 100 % of control.

Consider `COc1cc2c(cc1OC)C1CCN3C(=O)CCC3N1CC2` (configuration not stated), for which the T/C is, setting by setting: under setting [7], 88 % of control; under setting [15], 92 % of control; under setting [8], 92 % of control; (dose: 400.0 mg/kg/injection, schedule: Q01DX009 (ip), vehicle: saline with Tween-80) 104 % of control; (dose: 400.0 mg/kg/injection, schedule: Q04DX003 (ip), vehicle: saline with Tween-80) 96 % of control.

On to `NNc1c(C(N)=O)c2c(N)ncnc2n1C1OC(CO)C(O)C1O` (configuration not stated), for which the T/C is 171 % of control under setting [1], 166 % of control under setting [2] and 199 % of control under setting [3].

Turning to `N#CC(=Nc1cc(Cl)cc(Cl)c1)C1=C(O)c2ccccc2C1=O`, the T/C is 101 % of control (dose: 50.0 mg/kg/injection, schedule: Q01DX005 (ip), vehicle: saline with Tween-80); 111 % of control (dose: 100.0 mg/kg/injection, schedule: Q01DX005 (ip), vehicle: saline with Tween-80); 101 % of control (dose: 200.0 mg/kg/injection, schedule: Q01DX005 (ip), vehicle: saline with Tween-80).

With `O=c1ccc2cc(OC3OC(CO)C(O)C(O)C3O)c(O)cc2o1` (configuration not stated), the T/C is, setting by setting: under setting [5], 95 % of control; (dose: 100.0 mg/kg/injection, schedule: Q04DX003 (ip), vehicle: alcohol) 105 % of control; under setting [6], 104 % of control; (dose: 200.0 mg/kg/injection, schedule: Q04DX003 (ip), vehicle: alcohol) 100 % of control; under setting [17], 109 % of control; (dose: 400.0 mg/kg/injection, schedule: Q04DX003 (ip), vehicle: alcohol) 110 % of control.

Source of the values: PubChem BioAssay AID328 (DTP/NCI, 2004).
